Measurements published in patent publication US5049559A, “Thieno-triazolo-diazepine derivatives useful as anti-ischemic agents” (priority 1989, dated 1991).
pIC50: −log10 of the molar value.

What was measured:
benzodiazepine receptors = test: Inhibition of the binding to benzodiazepine receptors; details: rat brains, 1 hour 30 minutes at 4° C., tracers 3H-RO-15-1788 and 3H-RO-5-4864, Table I, read-out: BDZ receptors
Source text: 2) Inhibition of the binding to benzodiazepine receptors
The interest of the previous experimentation depends on the results obtained in this experimentation: as a compound of the invention has a benzodiazepine like structure, it is important to check whether the specific benzodiazepine activity would not appear at the dose where platelet aggregation was inhibited.
Therefore, this experimentation has been conducted according to the method of MOHLER H. and RICHARD J. G. Agonist and antagonist benzodiazepine receptor interaction in vitro, Nature, vol. 294, 763-765, 1981.
This experimentation was conducted on rat brains incubated 1 hour 30 minutes at 4° C. using ^3 H-RO-15-1788 and ^3 H-RO-5-4864 (NEN) as tracers and […] and RO-5-4864 as reference antagonists.
The results in molecular concentration are reported in the table I, on the right hand column.

[1] = tested on: platelet aggregation induced by PAF; test: Inhibition of platelet aggregation induced by PAF; format: cell-based; details: Oryctolagus cuniculus, male New Zealand rabbits, Table I
Description: 1) Inhibition of platelet aggregation induced by PAF
This experimentation was conducted according to the method of R. KINLOUGH. RATHBONE, J. P. CAZENAVE, M. PACKHAM and F. MUSTARD, Lab. Invest. 48, 98, 1980. In this test, New Zealand rabbits were used (male New Zealand rabbits of an average weight of 5 kg).
The determinations are made on a chrono-log Coultronics aggregometer, at […] coupled with a graphic recorder; the results of these determinations (in molecular concentration) are reported on the table I on the central column.

[2] = Global ischemia on gerbils; format: in vivo; details: Meriones unguiculatus, 168 h, carotides clamped 10 minutes, hippocampes one week later, 3H-PK 11195, percentage of protection compared to control
Description: 3) Global ischemia on gerbils For this test, males gerbils were anaesthetized with brietal at the doses of 35 mg/kg IP; thereafter, both carotides were clamped for 10 minutes, then the clamping was released. Treated animals received each 10 mg/kg of the compounds of one of the examples. One week later, the animals were killed and both hippocampes were taken, weighed and frozen at -80° C. After crushing with 1 ml of TRIS-HCl pH 7.4 for 30 seconds, aliquots of each 50 μl of this preparation were incubed in each 1 ml of TRIS-HCl buffer containing ^3 H-PK 11195 at 2 nM (90 Ci/mmole, NENE, Germany) for 1 hour at 25° C. For each preparation, 3 determinations were made. The density of omega 3 sites (marked by the specific ^3 H-PK 11195 marker) are expressed in f-moles of PK 11195/mg of fresh tissues and converted in percentage of protection compared to control.

Structure (SMILES) | pIC50 (benzodiazepine receptors) | pIC50 [1] | inhibition in vivo at 10 mg/kg [2] [%]
Cc1nnc2n1-c1sc3c(c1C(c1ccccc1Cl)=NC2)CCN(C(=O)CSc1cccs1)C3 [Example 33, 6-(2-chlorophenyl)-9-(2-thienyl-thiomethyl-carbonyl)-7,8,9, 10-tetrahydro-1-methyl-4H-pyrido [4',3':4,5] thieno [3,2-f] 1,2,4-triazolo[4,3-a] 1,4-diazepine] | 5.24 | 7.39 | 24.8
Cc1nnc2n1-c1sc3c(c1C(c1ccccc1Cl)=NC2)CCN(C(=S)CSc1cccs1)C3 [Example 34, 6-(2-chlorophenyl)-9-(2-thienyl-thiomethyl-thiocarbonyl)-7,8,9, 10-tetrahydro-1-methyl-4H-pyrido [4',3':4,5] thieno [3,2-f] 1,2,4-triazolo[4,3-a] 1,4-diazepine] | 6.14 | 6.89 | 34.7
